Patent US20240165087A1, “APPLICATION OF RILUZOLE- AND BORNEOL-CONTAINING COMPOSITION IN PREPARATION OF MEDICATION FOR TREATING CEREBROVASCULAR DISEASES” (NEURODAWN PHARMACEUTICAL CO., LTD., priority 2021, published 2024)

Assays:
primary cortical neurons = assay: NMDA-induced excitatory injury test on primary cortical neurons (Luminescent Cell Viability Assay); format: cell-based, rat
Description: Pregnant SD rats at 18 days of pregnancy were sacrificed by cervical dislocation. The uterus of rats was dissected and the brain of E18 fetal rats was taken out. The cerebral cortex tissue of the fetal rats was separated into ice-cold DMEM. The meninges and blood vessels on the cortical tissue were removed under a dissecting microscope. The cortical tissue was transferred into ice-cold DMEM, cut into pieces (about 1 mm^3), and digested with trypsin at 37° C. for 10 min. The digestion was stopped with FBS. The obtained cells were blown gently with a Pasteur pipette and passed through a 200-mesh sieve. The filtered cell suspension was transferred to a 15 mL centrifuge tube, and centrifuged at 1000 rpm for 5 min. The supernatant was discarded. Then the cell mass at the bottom of the centrifuge tube was blown gently with 37° C.-prewarmed complete medium (Neurobasal+B27+GlutaMax+1% P/S). The cells were counted using a hemocytometer, diluted to 5×10^5 cells/mL with complete medium, and seeded in a 96-well plate coated with PDL (100 μL/well). Half of the cell culture medium was replaced with complete medium the next day. […] After the inducing buffer was discarded, the cells were washed once with a Locke's buffer containing 1 mM MgCl2, and recovered to be incubated for 4 h by replacing with a complete medium (100 μL/well). The viability of the primary neuron cells was determined by Luminescent Cell Viability Assay kit. According to the instruction, reagents were added at 100 μL/well, and shaking was performed for 10 min. […] Calculation formula: relative neuron activity V (%)=(LUM-LUMbackground)/(LUMnormal control group-LUMbackground group)×100%. LUMbackground was the background reading of the Luminescent Cell Viability Assay reagent added to the cell-free complete medium well. […] Fitting of EC50 of compounds: Log[compound concentration] was used as the abscissa and the relative inhibition rate was used as the ordinate. Log(inhibitor) vs. response-variable slope (four parameters) curve was fitted by Prism8 (GraphPad) to obtain the IC50 of the compounds. […] After the inducing buffer was discarded, the cells were washed once with a Locke's buffer containing 1 mM MgCl2, and recovered to be incubated for 4 h by replacing with a complete medium (100 μL/well). […] After the inducing buffer was discarded, the cells were washed once with a Locke's buffer containing 1 mM MgCl2, and recovered to be incubated for 4 h by replacing with a complete medium (100 μL/well). […] After the inducing buffer was discarded, the cells were washed once with a Locke's buffer containing 1 mM MgCl2, and recovered to be incubated for 4 h by replacing with a complete medium (100 μL/well). […] After the inducing buffer was discarded, the cells were washed once with a Locke's buffer containing 1 mM MgCl2, and recovered to be incubated for 4 h by replacing with a complete medium (100 μL/well).

MCAO rats = assay: Rat focal cerebral ischemia-reperfusion model (MCAO), neurological deficit score and cerebral infarction area; format: in vivo; settings: Example 6
Description: The rat focal cerebral ischemia-reperfusion model was established by internal carotid artery suture method. The limbs (hind limbs above the knee joint and forelimbs above the wrist joint) and head of an anesthetized rat were tightened with rubber bands. The animal was fixed on an operating table in supine position, and was shaved with an animal shaver from the head to the chest, and the skin was disinfected with alcohol. The neck of the rat was cut at the midline, and the subcutaneous tissue was bluntly separated. The thin layer of fascia on the surface of the anterior triangle of the neck was separated, the lower side-lower edge of the clavicular hyoid muscle was pulled up, and the longitudinally pulsating artery parallel to this muscle can be seen. The arterial shell was opened, and the bifurcation of the right carotid artery was exposed. The right common carotid artery, external carotid artery and internal carotid artery were separated. The vagus nerve was gently stripped, and the external carotid artery was ligated and cut. The proximal end of the common carotid artery was clamped. An incision was made at the distal end from the ligature of the external carotid artery, and was inserted with a suture line, which was passed through the bifurcation of the common carotid artery into the internal carotid artery, and then was inserted slowly until reaching slight resistance (approximately 20 mm from the bifurcation), so as to block all blood supply to the middle cerebral artery. The suture line was slightly fixed below the incision of the external carotid artery with silk thread. The silk thread clamping the proximal end of the common carotid artery was loosened. A gauze soaked in sterile saline was covered on the wound, and the rat was placed on a heat preservation pad to keep warm. 2.0 h after cerebral ischemia on the right side, the suture line was pulled out gently to restore the blood supply for reperfusion. The external carotid artery was ligated with silk thread fixing the suture line. The skin was stitched, and disinfected. The rats were placed in clean feed, and their general condition and respiration were observed until they woke up from anesthesia. The rats were provided with food and water, and commonly reared.
After the cerebral ischemia model was established, the animals were assigned to each group in a single-blind manner with equal probability. After reperfusion, the animals were immediately administered intravenously with the drugs once. The animals in the model group were administered with an equal volume of normal saline. Neurological deficit symptoms were evaluated 24 hours after cerebral ischemia, the animals were sacrificed, and their brains were taken out, stained, and photographed for determining the area of cerebral infarction.
Neurological deficit symptoms were evaluated using the modified Bederson 5-point scale. The neurological deficit symptoms of rats after cerebral ischemia were evaluated by a single-blind method. […] After scoring, the scoring results of various markers were submitted to the designer, who unblinded and obtained the scoring of each animal in each experimental group.
The degree of cerebral infarction was determined by TTC staining. After the evaluation of the symptoms of neurological deficits was completed, the animals were sacrificed with CO2. The brain was taken out by cutting off head. The olfactory bulb, cerebellum and lower brainstem were removed. The blood on the surface of the brain was washed with normal saline, and the residual water on the surface was removed. The brain was placed at −20° C. for 20 min, then taken out, immediately cut to a coronal section vertically downward at the crossing plane of the line of sight, and sliced backward every 2 mm. The brain slices were incubated in 1% TTC staining solution (at 37° C. for 30 min). The normal brain tissue was stained into dark red, and the ischemic brain tissue was stained into pale white.

[1] = target: T1, recombinant human GABAAR (α1β2γ2L) (Homo sapiens, UniProt P14867+P18507+P47870); settings: Xenopus laevis oocytes, cited from earlier work
T1 construct: host or cells: Xenopus laevis oocytes

[2] = target: N-methyl-D-aspartate (NMDA) receptors; settings: read-out: IC50, noncompetitive block of NMDA receptors; cited from earlier work
kainic acid receptors = settings: read-out: IC50, block of kainic acid receptors; cited from earlier work

T1 sequence (P14867 28-456): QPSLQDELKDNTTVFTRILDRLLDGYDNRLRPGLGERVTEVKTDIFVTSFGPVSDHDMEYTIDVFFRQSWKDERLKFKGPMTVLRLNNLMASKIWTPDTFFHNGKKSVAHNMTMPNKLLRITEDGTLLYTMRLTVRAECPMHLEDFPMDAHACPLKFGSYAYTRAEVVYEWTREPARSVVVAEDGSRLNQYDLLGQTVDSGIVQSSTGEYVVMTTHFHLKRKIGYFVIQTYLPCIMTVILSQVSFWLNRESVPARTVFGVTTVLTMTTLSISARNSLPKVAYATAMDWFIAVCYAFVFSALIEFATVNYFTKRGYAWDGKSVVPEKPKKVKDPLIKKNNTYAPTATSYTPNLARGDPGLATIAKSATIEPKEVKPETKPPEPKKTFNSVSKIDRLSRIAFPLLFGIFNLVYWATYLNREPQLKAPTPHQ
T1 sequence (P47870 25-512 limits assumed): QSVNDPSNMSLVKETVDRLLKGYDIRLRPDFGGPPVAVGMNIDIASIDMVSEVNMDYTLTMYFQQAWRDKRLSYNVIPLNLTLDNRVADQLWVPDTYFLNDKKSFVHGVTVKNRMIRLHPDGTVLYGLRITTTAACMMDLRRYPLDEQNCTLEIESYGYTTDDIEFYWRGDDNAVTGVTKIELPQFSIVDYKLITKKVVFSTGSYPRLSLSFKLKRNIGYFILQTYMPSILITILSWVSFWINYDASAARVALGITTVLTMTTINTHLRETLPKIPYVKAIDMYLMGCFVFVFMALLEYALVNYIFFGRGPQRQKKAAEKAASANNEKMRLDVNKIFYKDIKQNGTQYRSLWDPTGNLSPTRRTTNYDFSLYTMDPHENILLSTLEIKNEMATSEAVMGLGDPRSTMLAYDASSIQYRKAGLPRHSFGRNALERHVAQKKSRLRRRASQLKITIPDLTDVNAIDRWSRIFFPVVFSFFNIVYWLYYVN
T1 sequence (P18507 40-475): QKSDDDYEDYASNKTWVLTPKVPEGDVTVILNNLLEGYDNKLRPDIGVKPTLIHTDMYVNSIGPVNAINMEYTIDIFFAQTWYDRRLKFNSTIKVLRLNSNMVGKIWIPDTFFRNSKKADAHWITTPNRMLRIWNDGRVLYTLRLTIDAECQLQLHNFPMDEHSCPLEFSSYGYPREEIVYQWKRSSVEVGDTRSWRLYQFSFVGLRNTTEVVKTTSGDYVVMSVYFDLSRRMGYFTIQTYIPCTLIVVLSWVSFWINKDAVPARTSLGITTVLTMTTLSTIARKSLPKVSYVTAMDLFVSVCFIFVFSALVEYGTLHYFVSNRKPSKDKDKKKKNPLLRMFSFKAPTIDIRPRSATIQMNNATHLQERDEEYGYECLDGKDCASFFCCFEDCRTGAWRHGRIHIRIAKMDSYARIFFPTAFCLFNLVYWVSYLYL

CC1(C)[C@@H]2CC[C@@]1(C)[C@@H](O)C2 [(+)-2-Borneol]
viability of neurons with excitatory injury (primary cortical neurons; Example 1, 0.41-3.7 μM): concentration-dependently increased | viability of neurons with excitatory injury (primary cortical neurons; Example 1, 10-100 μM): tended to decrease | viability of neurons with NMDA-induced excitatory injury (primary cortical neurons; Example 2, alone at 3.7 μM): significantly improve | Fa, protecting neurons from excitatory injury (primary cortical neurons; Example 3, (+)-2-borneol 0.5 μM): 0.014 | Fa, protecting neurons from excitatory injury (primary cortical neurons; Example 3, (+)-2-borneol 1 μM): 0.022 | Fa, protecting neurons from excitatory injury (primary cortical neurons; Example 3, (+)-2-borneol 2 μM): 0.152 | Fa, protecting neurons from excitatory injury (primary cortical neurons; Example 3, (+)-2-borneol 4 μM): 0.22 | Fa, protecting neurons from excitatory injury (primary cortical neurons; Example 3, (+)-2-borneol 8 μM): 0.231 | viability of neurons with injury induced by NMDA (primary cortical neurons; Example 3, riluzole 10-160 μM, (+)-2-borneol 0.5-8 μM, compositions 20:1): concentration-dependently increase | Fa, protecting neurons from excitatory injury (primary cortical neurons; Example 4, (+)-2-borneol 0.5 μM): 0.042 | Fa, protecting neurons from excitatory injury (primary cortical neurons; Example 4, (+)-2-borneol 1 μM): 0.069 | Fa, protecting neurons from excitatory injury (primary cortical neurons; Example 4, (+)-2-borneol 2 μM): 0.086 | Fa, protecting neurons from excitatory injury (primary cortical neurons; Example 4, (+)-2-borneol 4 μM): 0.209 | Fa, protecting neurons from excitatory injury (primary cortical neurons; Example 4, (+)-2-borneol 8 μM): 0.205 | viability of neurons with injury induced by NMDA (primary cortical neurons; Example 4, riluzole 2.5-40 μM, (+)-2-borneol 0.5-8 μM, compositions 5:1): concentration-dependently increase | Fa, protecting neurons from excitatory injury (primary cortical neurons; Example 5, (+)-2-borneol 0.5 μM): 0.042 | Fa, protecting neurons from excitatory injury (primary cortical neurons; Example 5, (+)-2-borneol 1 μM): 0.077 | Fa, protecting neurons from excitatory injury (primary cortical neurons; Example 5, (+)-2-borneol 2 μM): 0.128 | Fa, protecting neurons from excitatory injury (primary cortical neurons; Example 5, (+)-2-borneol 4 μM): 0.205 | Fa, protecting neurons from excitatory injury (primary cortical neurons; Example 5, (+)-2-borneol 8 μM): 0.202 | viability of neurons with injury induced by NMDA / protective effect (primary cortical neurons; Example 5, riluzole 0.5-8 μM, (+)-2-borneol 0.5-8 μM, compositions 1:1): concentration-dependently increase | Emax (primary cortical neurons; Rattus norvegicus, Primary cortical neuron, Example 1, concentration-inhibition rate curve, read-out: Emax (relative inhibition rate)): 15% | neurological deficit score vs MCAO model group (MCAO rats; 1 mg/kg i.v. once after reperfusion, 24 hours): significantly reduced | cerebral infarction area vs MCAO model group (MCAO rats; 0.5 and 1 mg/kg i.v. once after reperfusion, 24 hours): dose-dependently, significantly reduced | Fa, reducing the area of cerebral infarction in MCAO rats (MCAO rats; (+)-2-borneol 0.5 mg/kg): 0.157 | Fa, reducing the area of cerebral infarction in MCAO rats (MCAO rats; (+)-2-borneol 1 mg/kg): 0.256 | neurological deficit score of MCAO rats, dose dependence (MCAO rats; i.v. once after reperfusion, evaluated 24 hours after cerebral ischemia): dose-dependently reduce | EC50 ([1]; low concentration of GABA, read-out: EC50, enhancement of GABAAR function): 248 µM | enhancement of function of GABAAR induced by low concentration of GABA [1]: more than 10 times

Nc1nc2ccc(OC(F)(F)F)cc2s1 [Riluzole, 2-Amino-6-trifluoromethoxybenzothiazole]
neurological deficit score vs MCAO model group (MCAO rats; 8 mg/kg i.v. once after reperfusion, 24 hours): significantly reduced | IC50 [2]: 18 µM | IC50 (kainic acid receptors): 167 µM
